Measured values: PubChem BioAssay (NCI)
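The concentration for 50% growth inhibition is given as GI50. TGI: concentration producing complete growth inhibition.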

Legend:
Experiment in all cases: NCI-60 cell line screen, 384-well format
[1] = test system: SF-539 CNS
[2] = test system: PC-3 prostate
[3] = test system: BT-549 breast
[4] = test system: UO-31 renal
[5] = test system: MOLT-4 leukemia
[6] = test system: UACC-257 melanoma
[7] = test system: T-47D breast
[8] = test system: TK-10 renal
[9] = test system: MDA-MB-435 melanoma
[10] = test system: SK-MEL-5 melanoma
[11] = test system: SR leukemia
[12] = test system: 786-0 renal
[13] = test system: A498 renal
[14] = test system: IGROV1 ovarian
[15] = test system: NCI-H23 lung
[16] = test system: COLO 205 colon
[17] = test system: M14 melanoma
[18] = test system: SNB-19 CNS
[19] = test system: CAKI-1 renal
[20] = test system: OVCAR-8 ovarian
[21] = test system: HOP-92 NSCLC
[22] = test system: HS 578T breast
[23] = test system: U251 glioblastoma
[24] = test system: UACC-62 melanoma
[25] = test system: HT29 colon
[26] = test system: OVCAR-3 ovarian
[27] = test system: RXF 393 renal
[28] = test system: OVCAR-5 ovarian

Work on `CCc1cc2c(c(OCC(F)(F)F)c(C(=O)NC3CCN(C(=O)CO)CC3)n2C)c(=O)n1CC(=O)c1ccccc1` yielded a TGI [1] greater than 100 µM, a GI50 [2] of 42.1 µM and a TGI [2] greater than 100 µM. It also gave a GI50 [3] of 57.9 µM, a TGI [3] greater than 100 µM and a GI50 [4] of 19.7 µM. The TGI [4] was 51.6 µM, the GI50 [5] was 18.3 µM and the TGI [5] was 34.6 µM. The GI50 [6] was 68.8 µM, the TGI [6] was greater than 100 µM and the GI50 [7] was 29.9 µM. The TGI [7] was greater than 100 µM, the GI50 [8] was 33.9 µM and the TGI [8] was greater than 100 µM. For the same compound, the GI50 [9] was greater than 100 µM, the TGI [9] was greater than 100 µM and the GI50 [10] was 23.2 µM. It also gave a TGI [10] greater than 100 µM, a GI50 [11] of 17.3 µM and a TGI [11] of 31.4 µM. The GI50 [12] was 18.4 µM, the TGI [12] was 36.6 µM and the GI50 [13] was 33.6 µM. For the same compound, the TGI [13] was greater than 100 µM, the GI50 [14] was 58.2 µM and the TGI [14] was greater than 100 µM. The GI50 [15] was 79.9 µM, the TGI [15] was greater than 100 µM and the GI50 [16] was greater than 100 µM. For the same compound, the TGI [16] was greater than 100 µM, the GI50 [17] was greater than 100 µM and the TGI [17] was greater than 100 µM. It also gave a GI50 [18] greater than 100 µM, a TGI [18] greater than 100 µM and a GI50 [19] of 39.6 µM. The TGI [19] was greater than 100 µM, the GI50 [20] was 54.2 µM and the TGI [20] was greater than 100 µM. It also gave a GI50 [21] of 58.6 µM, a TGI [21] greater than 100 µM and a GI50 [22] of 37.7 µM. It also gave a TGI [22] greater than 100 µM, a GI50 [23] of 52.6 µM and a TGI [23] greater than 100 µM. It also gave a GI50 [24] of 32.6 µM, a TGI [24] greater than 100 µM and a GI50 [25] of 41.7 µM. It also gave a TGI [25] greater than 100 µM, a GI50 [26] of 40 µM and a TGI [26] greater than 100 µM. For the same compound, the GI50 [27] was 1.91 µM, the TGI [27] was 12.4 µM and the GI50 [28] was greater than 100 µM. It also gave a TGI [28] greater than 100 µM.
